Earlier results in patent US9023853B2, “Janus kinase 2 (JAK2) inhibitor for the treatment of lupus” (Cephalon, Inc., priority 2010, dated 2015).
Like-named read-outs stand apart in the source and are kept apart here.

Settings: cited from earlier work

Compound | effectiveness in rheumatoid arthritis (doses of 5-30 mg twice per day) | effectiveness in rheumatoid arthritis (doses of 4-10 mg once daily)
CC1CCN(C(=O)CC#N)CC1N(C)c1ncnc2[nH]ccc12 (stereo in doubt) [tasocitinib] | effective | –
CCS(=O)(=O)N1CC(CC#N)(n2cc(-c3ncnc4[nH]ccc34)cn2)C1 [INCB028050] | – | effective
